Data reported in PubChem BioAssay AID1259408 (Genetic Toxicology Data Bank (GENE-TOX), 2018).
Calls of active or inactive are those of the source. The rule behind the calls is not given here.

Test system: GENE-TOX genotoxicity assays, various organisms and cells
Test: GENE-TOX mutagenicity studies
Details: for call: Assay Type: In vivo carcinogenicity studies
[1] = Species/Cell Type: Aspergillus nidulans, Assay Type: Aneuploidy, chromosome aberrations, Assay Code: ASN+, Evaluation Type: Evaluation A (Pre-1980)
[2] = Species/Cell Type: Salmonella typhimurium, Assay Type: Forward and reverse gene mutation, host-mediated assay, Assay Code: HMA-, Evaluation Type: Evaluation A (Pre-1980)
[3] = Species/Cell Type: Salmonella typhimurium (one or more of the five standard strains: TA98, TA100, TA1535, TA1537, and TA1538), Assay Type: Histidine reverse gene mutation, Ames assay, Assay Code: SAL-, Evaluation Type: Evaluation A (Pre-1980)
[4] = Species/Cell Type: Human, Assay Type: Sister-chromatid exchange (SCE) in vitro, Assay Code: SC1T, Evaluation Type: Evaluation B (Post-1980)
[5] = Species/Cell Type: Salmonella typhimurium (one or more of the five standard strains: TA98, TA100, TA1535, TA1537, and TA1538), Assay Type: Histidine reverse gene mutation, Ames assay, Assay Code: SALT, Evaluation Type: Evaluation A (Pre-1980)
[6] = Species/Cell Type: Nonhuman, Assay Code: CCG+, Evaluation Type: Evaluation A (Pre-1980)
[7] = Species/Cell Type: Drosophila melanogaster, Assay Type: Sex-linked recessive lethal gene mutation, Assay Code: SRLT, Evaluation Type: Evaluation A (Pre-1980)
[8] = Species/Cell Type: Escherichia coli polA (W3119 vs P3478), Assay Type: Rec-assay, DNA effects (bacterial DNA repair), Assay Code: RE1T, Evaluation Type: Evaluation A (Pre-1980)
[9] = Species/Cell Type: Bacillus subtilis (H17 vs M45), Assay Type: Rec-assay, spot test, DNA effects (bacterial DNA repair), Assay Code: REW+, Evaluation Type: Evaluation A (Pre-1980)
[10] = Species/Cell Type: Bacillus subtilis (H17 vs M45T), Assay Type: Rec-assay, spot test, DNA effects (bacterial DNA repair), Assay Code: REXT, Evaluation Type: Evaluation A (Pre-1980)
[11] = Species/Cell Type: Salmonella typhimurium (one or more of the five standard strains: TA98, TA100, TA1535, TA1537, and TA1538), Assay Type: Histidine reverse gene mutation, Ames assay, Assay Code: SAL+, Evaluation Type: Evaluation A (Pre-1980)

CCCCNC(=O)n1c(NC(=O)OC)nc2ccccc21
mutagenic call (Species/Cell Type: Allium cepa, Assay Type: Chromosome aberrations, Assay Code: ALC+, Evaluation Type: Evaluation A (Pre-1980)): active; positive
mutagenic call [1]: active; positive
mutagenic call (Species/Cell Type: Aspergillus nidulans, Assay Type: Mitotic recombination, Assay Code: ASG-, Evaluation Type: Evaluation A (Pre-1980)): inactive; negative
mutagenic call (Species/Cell Type: Escherichia coli WP2, Assay Type: Tryptophan reverse gene mutation, Assay Code: WP2T, Evaluation Type: Evaluation A (Pre-1980)): no conclusion
mutagenic call (Species/Cell Type: Escherichia coli WP2 UVRA, Assay Type: Tryptophan reverse gene mutation, Assay Code: WPU+, Evaluation Type: Evaluation A (Pre-1980)): active; positive
mutagenic call (Species/Cell Type: Saccharomyces cerevisiae, Assay Type: Mitotic recombination or gene conversion, Assay Code: YEC-, Evaluation Type: Evaluation A (Pre-1980)): inactive; negative
mutagenic call [2]: inactive; negative

CN(C)c1ccc(-c2ccc(N(C)C)cc2)cc1
mutagenic call [3]: inactive; negative

CN1C(=O)CN=C(c2ccccc2)c2cc(Cl)ccc21
mutagenic call (Species/Cell Type: Human lymphocytes, Assay Type: Sister-chromatid exchange (SCE) in vivo, Assay Code: SCY+, Evaluation Type: Evaluation B (Post-1980)): active; positive
mutagenic call [4]: no conclusion
mutagenic call (Species/Cell Type: Mammalian polychromatic erythrocytes, Assay Type: Micronucleus test, chromosome aberrations, Assay Code: MNTT, Evaluation Type: Evaluation A (Pre-1980)): no conclusion
mutagenic call [5]: no conclusion
mutagenic call (Species/Cell Type: Salmonella typhimurium, Assay Type: Forward and reverse gene mutation, body fluid assay, Assay Code: BFU+, Evaluation Type: Evaluation A (Pre-1980)): active; positive

NC(=O)N1c2ccccc2C=Cc2ccc(O)cc21
mutagenic call (Species/Cell Type: Human lymphocytes, Assay Type: Sister-chromatid exchange (SCE) in vitro, Assay Code: SCLT, Evaluation Type: Evaluation B (Post-1980)): no conclusion
mutagenic call [4]: no conclusion

CN(C)CCCN1c2ccccc2Sc2ccccc21
mutagenic call (Species/Cell Type: Nonhuman, Assay Type: Sister-chromatid exchange (SCE) in vitro, Assay Code: SC2+D, Dose Response: With dose response, Evaluation Type: Evaluation A (Pre-1980)): active; positive

Cc1ccc2c(c1N)C(=O)c1ccccc1C2=O
call [6]: active; positive

Nc1nc2nc[nH]c2c(=O)[nH]1
mutagenic call [7]: no conclusion
mutagenic call [8]: no conclusion

CCCCS(=O)(=O)OC
mutagenic call (Species/Cell Type: Glycine max (soybean), Assay Type: Gene mutation, Assay Code: GLM+, Evaluation Type: Evaluation A (Pre-1980)): active; positive

[Cl][Hg]
mutagenic call [9]: active; positive
mutagenic call [10]: no conclusion
mutagenic call (Species/Cell Type: Nonhuman, Assay Type: Sister-chromatid exchange (SCE) in vitro, Assay Code: SC2+, Evaluation Type: Evaluation B (Post-1980)): active; positive

C1=Cc2c3c1cccc3cc1ccc3ccccc3c21
mutagenic call (Species/Cell Type: Nonhuman, Assay Type: Sister-chromatid exchange (SCE) in vivo, Assay Code: SC3+D, Dose Response: With dose response, Evaluation Type: Evaluation B (Post-1980)): active; positive

COC(=O)NC(=S)Nc1ccccc1NC(=S)NC(=O)OC
mutagenic call [1]: active; positive
mutagenic call (Species/Cell Type: Mammalian germ cells, Sex: Male, Assay Type: Chromosome aberrations in vivo, Assay Code: CY9-, Evaluation Type: Evaluation A (Pre-1980)): inactive; negative

Cn1cc[nH]c1=S
mutagenic call (Species/Cell Type: Mammalian polychromatic erythrocytes, Assay Type: Micronucleus test, chromosome aberrations, Assay Code: MNTT, Evaluation Type: Evaluation B (Post-1980)): no conclusion

Clc1ccc(C(c2ccccc2Cl)C(Cl)(Cl)Cl)cc1 (stereo not given)
mutagenic call (Species/Cell Type: Nonhuman, Assay Type: Chromosome aberrations in vitro, Assay Code: CY&+, Evaluation Type: Evaluation A (Pre-1980)): active; positive

Oc1ccc2cccnc2c1
mutagenic call [3]: inactive; negative

[Cl][Mn][Cl]
mutagenic call [9]: active; positive
mutagenic call (Species/Cell Type: Fischer rat embryo (RLV/1706) cells, Assay Type: Cell transformation, viral enhanced, Assay Code: CTR+, Evaluation Type: Evaluation A (Pre-1980)): active; positive
mutagenic call (Species/Cell Type: Nonhuman, Assay Type: Sister-chromatid exchange (SCE) in vitro, Assay Code: SC2T, Evaluation Type: Evaluation B (Post-1980)): no conclusion
mutagenic call (Species/Cell Type: Syrian hamster embryo (SA7/SHE) cells, Assay Type: Cell transformation, viral enhanced, Assay Code: CT7+, Evaluation Type: Evaluation A (Pre-1980)): active; positive

C[C@H]1O[C@@H](O[C@H]2[C@@H](O)C[C@H](O[C@H]3[C@@H](O)C[C@H](O[C@H]4CC[C@@]5(C)[C@H](CC[C@@H]6[C@@H]5C[C@@H](O)[C@]5(C)[C@@H](C7=CC(=O)OC7)CC[C@]65O)C4)O[C@@H]3C)O[C@@H]2C)C[C@H](O)[C@@H]1O
mutagenic call [8]: no conclusion

C/[N+]([O-])=N/CO[C@@H]1O[C@H](CO)[C@@H](O)[C@H](O)[C@H]1O
mutagenic call [7]: no conclusion
call [6]: active; positive
mutagenic call [3]: inactive; negative
mutagenic call (Species/Cell Type: Salmonella typhimurium, Assay Type: Forward and reverse gene mutation, host-mediated assay, Assay Code: HMA+, Evaluation Type: Evaluation A (Pre-1980)): active; positive

Cc1ccc(Nc2ccc3c4c(cccc24)C(=O)c2ccccc2-3)cc1
mutagenic call [11]: active; positive

Cc1c(C2(c3cc(Br)c(O)c(Br)c3C)OS(=O)(=O)c3ccccc32)cc(Br)c(O)c1Br
mutagenic call [10]: no conclusion
mutagenic call [5]: no conclusion

O=C1NCCN1c1ncc([N+](=O)[O-])s1
mutagenic call (Species/Cell Type: Escherichia coli WP2, Assay Type: Tryptophan reverse gene mutation, Assay Code: WP2+D, Dose Response: With dose response, Evaluation Type: Evaluation A (Pre-1980)): active; positive
mutagenic call (Species/Cell Type: Escherichia coli WP2 UVRA, Assay Type: Tryptophan reverse gene mutation, Assay Code: WPU+D, Dose Response: With dose response, Evaluation Type: Evaluation A (Pre-1980)): active; positive
mutagenic call (Species/Cell Type: Human, Sex: Male, Assay Type: Sperm morphology, Assay Code: SPH-, Evaluation Type: Evaluation A (Pre-1980)): inactive; negative
mutagenic call (Species/Cell Type: Neurospora crassa, Assay Type: Forward gene mutation, Assay Code: NEF+, Evaluation Type: Evaluation A (Pre-1980)): active; positive
call [6]: active; positive
mutagenic call (Species/Cell Type: Saccharomyces cerevisiae, Assay Type: Mitotic recombination or gene conversion, Assay Code: YEH+, Evaluation Type: Evaluation A (Pre-1980)): active; positive
mutagenic call [11]: active; positive

COc1cc([N+](=O)[O-])ccc1N=Nc1ccccc1
mutagenic call [5]: no conclusion

Nc1c(F)cc(-c2cc(F)c(N)c(F)c2)cc1F
mutagenic call (Species/Cell Type: Human diploid fibroblasts, Assay Type: Unscheduled DNA synthesis (UDS) in vitro, DNA effects, Assay Code: UDH+*, Activation: With metabolic activation, Evaluation Type: Evaluation A (Pre-1980)): active; positive
mutagenic call (Species/Cell Type: Salmonella typhimurium (one or more of the five standard strains: TA98, TA100, TA1535, TA1537, and TA1538), Assay Type: Histidine reverse gene mutation, Ames assay, Assay Code: SAL+*, Activation: With metabolic activation, Evaluation Type: Evaluation A (Pre-1980)): active; positive

O[C@H]1[C@H](O)[C@@H](O)c2c(cc3ccc4cccc5ccc2c3c45)[C@@H]1O
mutagenic call (Species/Cell Type: Chinese hamster lung (V79) cells, Assay Type: Forward gene mutation at the HPRT or ouabain locus, Assay Code: V79-*, Activation: With metabolic activation, Evaluation Type: Evaluation A (Pre-1980)): inactive; negative

CN(C)c1ccc(N=Nc2ccccc2C(=O)O)cc1
mutagenic call [9]: active; positive
mutagenic call [5]: no conclusion

Cc1c2ccccc2cc2c3c(ccc12)C=C[C@@H](O)[C@@H]3O
mutagenic call (Species/Cell Type: Mouse prostate cells, Assay Type: Cell transformation, Assay Code: CTM+, Evaluation Type: Evaluation A (Pre-1980)): active; positive
call (Species/Cell Type: Nonhuman, Assay Code: CCGT, Evaluation Type: Evaluation A (Pre-1980)): no conclusion
mutagenic call (Species/Cell Type: Nonhuman, Assay Type: Sister-chromatid exchange (SCE) in vitro, Assay Code: SC2+, Evaluation Type: Evaluation A (Pre-1980)): active; positive

O=C1CCCCCO1
mutagenic call (Species/Cell Type: Escherichia coli polA (W3110 vs P3478), Assay Type: Rec-assay, DNA effects (bacterial DNA repair), Assay Code: RE2-, Evaluation Type: Evaluation A (Pre-1980)): inactive; negative
mutagenic call (Species/Cell Type: Escherichia coli polA (W3119 vs P3478), Assay Type: Rec-assay, DNA effects (bacterial DNA repair), Assay Code: RE1-, Evaluation Type: Evaluation A (Pre-1980)): inactive; negative
mutagenic call (Species/Cell Type: Mouse lymphoma (L5178Y) cells, Assay Type: Forward gene mutation at the thymidine kinase (TK) locus, chromosome aberrations, Assay Code: L51-, Evaluation Type: Evaluation A (Pre-1980)): inactive; negative
mutagenic call (Species/Cell Type: Nonhuman, Assay Type: Sister-chromatid exchange (SCE) in vitro, Assay Code: SC2-, Evaluation Type: Evaluation A (Pre-1980)): inactive; negative
mutagenic call (Species/Cell Type: Saccharomyces cerevisiae, Assay Type: Mitotic recombination or gene conversion, Assay Code: YEH-, Evaluation Type: Evaluation A (Pre-1980)): inactive; negative
mutagenic call [3]: inactive; negative
mutagenic call [2]: inactive; negative
mutagenic call (Species/Cell Type: Syrian hamster embryo (SHE) cells, Assay Type: Cell transformation, clonal assay, Assay Code: CTC-, Evaluation Type: Evaluation A (Pre-1980)): inactive; negative
